How the values were obtained:
large (Lg) crabgrass [1] = experiment: Test A postemergence; type: in vivo, Digitaria sanguinalis
In short: (§1)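 Scoring: eye-based comparison with untreated controls, 0 for no effect through 100 for complete control, at about day 10. Treatments: directed soil spray preemergence; foliar spray postemergence on 2–10 cm plants at the one- to two-leaf stage. Medium: loam soil with sand.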

giant foxtail [2] = experiment: Test A preemergence; type: in vivo, Setaria faberii
In short: as §1

pigweed [3] = experiment: Test A postemergence; type: in vivo, Amaranthus retroflexus
In short: as §1

velvetleaf [4] = experiment: Test A preemergence; type: in vivo, Abutilon theophrasti
In short: as §1

giant foxtail [5] = experiment: Test A postemergence; type: in vivo, Setaria faberii
In short: as §1

pigweed [6] = experiment: Test A preemergence; type: in vivo, Amaranthus retroflexus
In short: as §1

corn [7] = experiment: Test A preemergence; type: in vivo, Zea mays
In short: as §1

morningglory [8] = experiment: Test A preemergence; type: in vivo, Ipomoea spp.
In short: as §1

large (Lg) crabgrass [9] = experiment: Test A preemergence; type: in vivo, Digitaria sanguinalis
In short: as §1

barnyardgrass [10] = experiment: Test A preemergence; type: in vivo, Echinochloa crus-galli
In short: as §1

velvetleaf [11] = experiment: Test A postemergence; type: in vivo, Abutilon theophrasti
In short: as §1

morningglory [12] = experiment: Test A postemergence; type: in vivo, Ipomoea spp.
In short: as §1

wheat [13] = experiment: Test A postemergence; type: in vivo, Triticum aestivum
In short: as §1

barnyardgrass [14] = experiment: Test B flooded paddy test; type: in vivo, Echinochloa crus-galli; settings: Flood, 250 g ai/ha; 0 to 100 scale where 0 is no effect and 100 is complete control
In short: (§2)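 Plants were grown to the 2-leaf stage, then pots were flooded to 3 cm above the soil and compounds were applied directly into the paddy water. That depth was held throughout, and after 13 to 15 days in the greenhouse injury was rated visually against controls on a 0–100 scale (0 no effect, 100 complete control).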

barnyardgrass [15] = experiment: Test A postemergence; type: in vivo, Echinochloa crus-galli
In short: as §1

Heteranthera limosa = experiment: Test B flooded paddy test; type: in vivo; settings: Flood, 250 g ai/ha; 0 to 100 scale where 0 is no effect and 100 is complete control
In short: as §2

sedge, umbrella = experiment: Test B flooded paddy test; type: in vivo, Cyperus difformis; settings: Flood, 250 g ai/ha; 0 to 100 scale where 0 is no effect and 100 is complete control
In short: as §2

corn [16] = experiment: Test A postemergence; type: in vivo, Zea mays
In short: as §1

rice = experiment: Test B flooded paddy test; type: in vivo, Oryza sativa; settings: Flood, 250 g ai/ha; 0 to 100 scale where 0 is no effect and 100 is complete control
In short: as §2

wheat [17] = experiment: Test A preemergence; type: in vivo, Triticum aestivum
In short: as §1

[18] = 1000 g ai/ha, 0 to 100 scale, 0 no effect, 100 complete control
[19] = 1000 g ai/ha, 0 to 100 scale, 0 no effect, 100 complete control, approx. 10 days
[20] = 125 g ai/ha, 0 to 100 scale where 0 is no effect and 100 is complete control
[21] = 500 g ai/ha, 0 to 100 scale where 0 is no effect and 100 is complete control

N#Cc1cccc(Oc2ncc(Cl)cn2)c1-n1cncn1 [Compound 193]
90: Velvetleaf plant response rating (velvetleaf [4]; [19]) | Plant response rating, Velvetleaf (velvetleaf [11]; [18]) | Plant response rating, Morningglory (morningglory [12]; [18]) | Plant response rating, Barnyardgrass (barnyardgrass [15]; [18])
80: Plant response rating, Crabgrass, Large (large (Lg) crabgrass [1]; [18]) | Plant response rating, Foxtail, Giant (giant foxtail [5]; [18])
20: Corn plant response rating (corn [7]; [19]) | Plant response rating, Wheat (wheat [13]; [18]) | Wheat plant response rating (wheat [17]; [19])
100: Foxtail, Giant plant response rating (giant foxtail [2]; [19]) | Plant response rating, Pigweed (pigweed [3]; [18]) | Pigweed plant response rating (pigweed [6]; [19]) | Morningglory plant response rating (morningglory [8]; [19]) | Crabgrass, Large plant response rating (large (Lg) crabgrass [9]; [19])
0: Plant response rating, Barnyardgrass (barnyardgrass [14]) | Plant response rating, Ducksalad (Heteranthera limosa) | Plant response rating, Sedge, Umbrella (sedge, umbrella) | Plant response rating, Rice (rice)
60: Barnyardgrass plant response rating (barnyardgrass [10]; [19]) | Plant response rating, Corn (corn [16]; [18])

Clc1cnc(Oc2cccc(I)c2-n2cc(Br)cn2)nc1 [Compound 66]
90: Velvetleaf plant response rating (velvetleaf [4]; [19]) | Plant response rating, Barnyardgrass (barnyardgrass [10]; [18])
20: Plant response rating, Wheat (wheat [13]; [18])
0: Plant response rating, Barnyardgrass (barnyardgrass [14]) | Plant response rating, Sedge, Umbrella (sedge, umbrella) | Plant response rating, Rice (rice)
80: Plant response rating, Barnyardgrass (barnyardgrass [15]; [18])
10: Wheat plant response rating (wheat [17]; [19])
40: Morningglory plant response rating (morningglory [8]; [19]) | Plant response rating, Corn (corn [16]; [18])
30: Plant response rating, Corn (corn [7]; [18]) | Plant response rating, Ducksalad (Heteranthera limosa)
100: Plant response rating, Crabgrass, Large (large (Lg) crabgrass [1]; [18]) | Foxtail, Giant plant response rating (giant foxtail [2]; [19]) | Plant response rating, Pigweed (pigweed [3]; [18]) | Plant response rating, Foxtail, Giant (giant foxtail [5]; [18]) | Pigweed plant response rating (pigweed [6]; [19]) | Plant response rating, Crabgrass, Large (large (Lg) crabgrass [9]; [18]) | Plant response rating, Velvetleaf (velvetleaf [11]; [18]) | Plant response rating, Morningglory (morningglory [12]; [18])

Clc1cnc(Oc2ccccc2-n2cc(-c3ccccn3)cn2)nc1 [Compound 190]
0: Foxtail, Giant plant response rating (giant foxtail [5]; [20]) | Corn plant response rating (0 to 100 scale) (corn [7]; 125 g ai/ha) | Corn plant response rating (corn [7]; [21]) | Morningglory plant response rating (0 to 100 scale) (morningglory [8]; 125 g ai/ha) | Barnyardgrass plant response rating (0 to 100 scale, 0 is no effect, 100 is complete control) (barnyardgrass [10]; 125 g ai/ha) | Wheat plant response rating (wheat [13]; [20]) | Plant response rating, Wheat (wheat [13]; [21]) | Plant response rating, Barnyardgrass (barnyardgrass [14]) | Barnyardgrass plant response rating (barnyardgrass [15]; [20]) | Plant response rating, Ducksalad (Heteranthera limosa) | Plant response rating, Sedge, Umbrella (sedge, umbrella) | Corn plant response rating (corn [16]; [20]) | Plant response rating, Rice (rice) | Wheat plant response rating (0 to 100 scale) (wheat [17]; 125 g ai/ha) | Wheat plant response rating (wheat [17]; [21])
30: Morningglory plant response rating (morningglory [12]; [20])
100: Pigweed plant response rating (pigweed [3]; [20]) | Plant response rating, Pigweed (pigweed [3]; [21]) | Pigweed plant response rating (0 to 100 scale) (pigweed [6]; 125 g ai/ha) | Pigweed plant response rating (pigweed [6]; [21])
90: Crabgrass, Large plant response rating (large (Lg) crabgrass [9]; [21]) | Plant response rating, Morningglory (morningglory [12]; [21])
50: Plant response rating, Crabgrass, Large (large (Lg) crabgrass [1]; [21]) | Velvetleaf plant response rating (0 to 100 scale) (velvetleaf [4]; 125 g ai/ha)
20: Morningglory plant response rating (morningglory [8]; [21]) | Crabgrass, Large plant response rating (0 to 100 scale) (large (Lg) crabgrass [9]; 125 g ai/ha) | Plant response rating, Corn (corn [16]; [21])
60: Velvetleaf plant response rating (velvetleaf [4]; [21]) | Velvetleaf plant response rating (velvetleaf [11]; [20])
80: Foxtail, Giant plant response rating (giant foxtail [2]; [21]) | Plant response rating, Velvetleaf (velvetleaf [11]; [21])
40: Plant response rating, Foxtail, Giant (giant foxtail [5]; [21])
10: Crabgrass, Large plant response rating (large (Lg) crabgrass [1]; [20]) | Foxtail, Giant plant response rating (0 to 100 scale) (giant foxtail [2]; 125 g ai/ha) | Barnyardgrass plant response rating (barnyardgrass [10]; [21]) | Plant response rating, Barnyardgrass (barnyardgrass [15]; [21])

From patent publication US9695155B2, “Herbicidal substituted pyrimidinyloxy benzene compounds” (E. I. DU PONT DE NEMOURS AND COMPANY, priority 2013, dated 2017)
